According to PMC11763059, “GENI as an AMPK Activator Binds α and γ Subunits and Improves the Memory Dysfunction of Alzheimer’s Disease Mouse Models via Autophagy and Neuroprotection” (Antioxidants, 2025):

Tested on: MAPK
Assay: Cellular thermal shift assay (CETSA) in PC12 cells, MAPK
Format: binding
Settings: 10 μM GENI 2 h, 60 °C to 80 °C
Procedure: In a 60 mm dish containing 5 mL of DMEM, 2 × 10^6 cells were added and incubated for 24 h. In each plate, 10 μM GENI was added and incubated for 2 h. Cells were harvested and heated at a temperature ranging from 60 °C to 80 °C for PC12 cell samples. We obtained a certain amount of cerebral cortex and hippocampus samples, which were added with PBS and ground. After centrifugation, the supernatant was used as a sample, and we measured the protein concentration with a BCA kit (CoWin Biotech Co., Ltd., Taizhou, Jiangsu, China). The protein of the cerebral cortex or hippocampus was incubated with 10 μM GENI at 37 °C for 2 h and heated from 65 °C to 100 °C for the cerebral cortex sample but 43 °C to 67 °C and 65 °C to 100 °C for the hippocampus sample. Equal volumes of supernatant heated at each temperature point for the control and treatment groups were used for Western blot analysis with the antibody for specific proteins.

## CC(C)CCOC(=O)C1=CO[C@@H](O[C@@H]2O[C@H](CO)[C@@H](O)[C@H](O)[C@H]2O)C2C(CO)=CCC12 (stereo partly shown) [GENI, Geniposidic 4-isoamyl ester]
  thermal stability of MAPK (CETSA): not obvious
